Results as given in patent US20170096636A1, “METHODS AND COMPOUNDS FOR PHOTOTHERAPY WITH CHALCOGENORHODAMINE PHOTOSENSITIZERS” (Wake Forest University Health Sciences, priority 2014, published 2017).
Where “and” joins values, the source holds several entries; their conditions need not be identical. Equal values may be shown once. Read-outs that look alike come from different tables or passages of the source.

Columns and labels:
[1] = test system: HUT-78 cells; test: Cellular uptake and extrusion of photosensitizer (flow cytometry MFI); format: cell-based; conditions: ±SE; for Uptake MFI: 2.5 × 10^−7 M photosensitizer, 20 minutes exposure; for % Extrusion: percent change in MFI after 18 hour extrusion period, 2.5 × 10^−7 M
Protocol: Cellular Uptake and Extrusion of Chalcogenorhodamine Photosensitizers. […] Cellular uptake of the chalcogenorhodamine photosensitizers was measured after a 20 minute exposure to 2.5×10^−7 M photosensitizer in malignant T cells (HUT-78 cells, Table 2). Transmembrane movement of the photosensitizers in the secretory direction (basolateral to apical) was measured after an 18-h extrusion period. As described above, the Se-containing molecules fluoresced at a lower intensity relative to the S-containing molecules. […] Overall, the PF6^− salts were more slowly extruded from cells relative to the chloride salts of the amide, with a greater difference in the extrusion kinetics noted between the thiorhodamine PF6 salts compared to the selenorhodamine chloride salts.

[2] = Fluorescence quantum yield in MeOH; format: physicochemical; conditions: for ΦF of sulfur analogue relative to selenium analogue: MeOH; for ΦF, MeOH: quantum yield for fluorescence in MeOH
[3] = test system: resting T cells; test: Dark toxicity: bioenergetics (O2 consumption rate) of resting T cells; conditions: 5.0×10^−7 M
[4] = target: P-gp (Homo sapiens, UniProt P08183); conditions: cited from earlier work
P-gp, sequence (P08183 whole entry): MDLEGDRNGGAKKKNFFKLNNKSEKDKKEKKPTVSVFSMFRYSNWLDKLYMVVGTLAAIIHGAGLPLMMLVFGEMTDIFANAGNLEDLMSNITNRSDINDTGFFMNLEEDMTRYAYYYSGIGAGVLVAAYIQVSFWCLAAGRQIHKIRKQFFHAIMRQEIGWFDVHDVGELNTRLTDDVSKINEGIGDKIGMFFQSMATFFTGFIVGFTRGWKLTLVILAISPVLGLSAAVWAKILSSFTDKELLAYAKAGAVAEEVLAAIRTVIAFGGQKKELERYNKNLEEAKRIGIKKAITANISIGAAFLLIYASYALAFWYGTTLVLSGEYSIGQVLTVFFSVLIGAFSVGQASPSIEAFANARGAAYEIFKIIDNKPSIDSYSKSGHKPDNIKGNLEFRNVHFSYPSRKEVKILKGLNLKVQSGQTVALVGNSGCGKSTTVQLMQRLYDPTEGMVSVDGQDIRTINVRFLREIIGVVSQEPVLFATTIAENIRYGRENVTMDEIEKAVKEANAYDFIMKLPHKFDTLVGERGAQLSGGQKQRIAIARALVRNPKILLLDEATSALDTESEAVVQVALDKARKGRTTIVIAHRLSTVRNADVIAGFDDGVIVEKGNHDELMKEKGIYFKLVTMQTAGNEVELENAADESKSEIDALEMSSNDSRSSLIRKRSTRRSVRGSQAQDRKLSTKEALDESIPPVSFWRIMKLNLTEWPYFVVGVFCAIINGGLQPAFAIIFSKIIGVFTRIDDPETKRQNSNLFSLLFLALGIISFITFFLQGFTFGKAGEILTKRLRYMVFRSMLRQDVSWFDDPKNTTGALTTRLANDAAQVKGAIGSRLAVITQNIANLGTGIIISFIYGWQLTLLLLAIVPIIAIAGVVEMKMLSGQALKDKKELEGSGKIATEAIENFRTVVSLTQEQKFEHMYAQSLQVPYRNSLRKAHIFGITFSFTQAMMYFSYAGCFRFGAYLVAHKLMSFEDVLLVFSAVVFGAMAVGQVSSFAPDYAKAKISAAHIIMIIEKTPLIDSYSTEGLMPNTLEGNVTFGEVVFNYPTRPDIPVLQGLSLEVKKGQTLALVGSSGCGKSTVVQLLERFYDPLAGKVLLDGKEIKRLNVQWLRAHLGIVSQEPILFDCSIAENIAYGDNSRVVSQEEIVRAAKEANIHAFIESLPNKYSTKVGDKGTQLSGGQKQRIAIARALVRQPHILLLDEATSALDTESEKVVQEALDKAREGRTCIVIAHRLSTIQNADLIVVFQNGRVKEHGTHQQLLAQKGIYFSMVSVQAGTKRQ

[5] = Quantum yield for generation of singlet oxygen, time-resolved 1O2 phosphorescence; format: physicochemical; conditions: air-saturated MeOH, TMR-Se as reference
[6] = test system: immunomagnetically-selected CD3+ cells; test: Phototoxicity: cell survival by FACS (Annexin 5/7AAD) 18 hours after PD; format: cell-based; conditions: 5.0×10^−8 M, 5 J/cm^2 light, FACS 18 hours after PD
Excerpt: Selective phototoxicity of Chalcogenorhodamine Photosensitizers. Based on the rapid extrusion kinetics and low potential for toxicity in resting cells, we selected four amide-containing half-julolidine analogues for further analysis (2-S—Cl, 2-Se—Cl, 4-S—Cl, and 4-Se—Cl). These photosensitizers are associated with high singlet oxygen quantum yields (Table I). As a result, very low concentrations of these agents are required for phototherapy. For all PD experiments, immunomagnetically-selected CD3^+ cells were suspended in a photosensitizer-rich media of 5.0×10^−8 M for 20 minutes followed by 30 minutes in a photosensitizer-free media. Cells were then exposed to 5 J/cm^2 of light followed by real-time measurement of OCR and ECAR. […] We next evaluated the effects of PD on cell survival. For these experiments, FACS analysis was performed 18 hours after PD. Cell survival was identified by failure to bind Annexin 5 and 7AAD, and percent survival was calculated as the difference in the absolute number of cells between PD and control (non-PD samples) samples.

[7] = n-octanol / PBS pH 7.4, shake flask

SMILES | Uptake MFI [1] | % Extrusion [1] | log P (pH 7.4) | ΦF of sulfur analogue relative to selenium analogue [2] | ΦF, MeOH [2] | log P [7] | dark toxicity [3] | effect on ATPase activity in P-gp [4] | Φ(^1O2), MeOH [5] | cell death after PD [6]
CCN(CC)C(=S)c1ccc(-c2c3ccc(N(C)C)cc3[se+]c3c4c5c(cc23)CCCN5CCC4)s1.[Cl-] [7-Se—Cl, 12-(Dimethylamino)-2,3,6,7-tetrahydro-9-(5-(diethylcarbamothioyl)-thiophen-2-yl)-1H,5H-selenoxantheno[2,3,4-ij]quinolizin-14-ium chloriode] | 14935 (±1810) | 81.23 (±2.56) % | 3.00 ± 0.02 |  |  |  |  |  |  | 
CN(C)c1ccc2c(-c3ccc(C(=O)N4CCCCC4)s3)c3cc4c5c(c3[s+]c2c1)CCCN5CCC4.[Cl-] [6-S—Cl] | 122500 | 82.10 (±1.17) % |  | roughly 30 fold | 0.36 ± 0.01 | 2.69 ± 0.02 |  |  |  | 
CCN(CC)C(=O)c1ccc(-c2c3ccc(N(C)C)cc3[s+]c3c4c5c(cc23)CCCN5CCC4)s1.[Cl-] [8-S—Cl] | 114750 | 78.55 (±2.35) % |  |  |  | 2.65 ± 0.02 | not associated with any significant dark toxicity |  |  | 
CCN(CC)C(=S)c1ccc(-c2c3ccc(N(C)C)cc3[s+]c3c4c5c(cc23)CCCN5CCC4)s1.F[P-](F)(F)(F)(F)F [7-S—PF6] | 87456 (±10089) | 73.25 (±2.15) % |  |  |  | 2.7 |  | inhibit ATPase activity |  | 
CN(C)c1ccc2c(-c3ccc(C(=S)N4CCCCC4)s3)c3cc4c5c(c3[s+]c2c1)CCCN5CCC4.[Cl-] [5-S—Cl] | 76661 (±5618) | 76.13 (±5.21) % |  | roughly 30 fold | 0.30 ± 0.01 | 2.97 ± 0.06 |  |  |  | 
CN1CCC(C)(C)c2cc3c(-c4ccc(C(=S)N5CCCCC5)s4)c4ccc(=[N+](C)C)cc-4[se]c3cc21.[Cl-] [1-Se—Cl, N-methyl-N-(1,4,4-trimethyl-6-(5-(piperidine-1-carbonothioyl)thiophen-2-yl)-3,4-dihydro-1H-selenochromeno[3,2-g]quinolin-9(2H)-ylidene)methanaminium Chloride] | 6162 (±633) | 90.06 (±1.95) % |  |  | 0.008 ± 0.001 | 1.61 ± 0.06 |  |  | 0.44 ± 0.03 | 
CCN(CC)C(=O)c1ccc(-c2c3ccc(=[N+](C)C)cc-3sc3cc4c(cc23)C(C)(C)CCN4C)s1.F[P-](F)(F)(F)(F)F [4-S—PF6] | 66500 | 92.20 (±0.55) % |  |  | 0.09 ± 0.01 | 1.5 |  | stimulate ATPase activity |  | 
CN(C)c1ccc2c(-c3ccc(C(=O)N4CCCCC4)s3)c3cc4c5c(c3[s+]c2c1)CCCN5CCC4.F[P-](F)(F)(F)(F)F [6-S—PF6] | 114190 | 82.54 (±1.17) % |  |  | 0.36 ± 0.01 | 1.9 |  | stimulate ATPase activity |  | 
CN1CCC(C)(C)c2cc3c(-c4ccc(C(=S)N5CCCCC5)s4)c4ccc(=[N+](C)C)cc-4sc3cc21.[Cl-] [1-S—Cl] | 30070 (±2481) | 84.97 (±2.87) % |  |  | 0.07 ± 0.01 | 1.92 ± 0.08 |  |  |  | 
CCN(CC)C(=S)c1ccc(-c2c3ccc(=[N+](C)C)cc-3sc3cc4c(cc23)C(C)(C)CCN4C)s1.[Cl-] [3-S—Cl] | 38237 (±2684) | 86.81 (±0.89) % |  |  | 0.07 ± 0.01 | 1.98 ± 0.06 |  |  |  | 
CCN(CC)C(=O)c1ccc(-c2c3ccc(=[N+](C)C)cc-3sc3cc4c(cc23)C(C)(C)CCN4C)s1.[Cl-] [4-S—Cl] | 64332 | 92.08 (±0.49) % |  |  | 0.09 ± 0.01 | 2.16 ± 0.02 | not associated with any significant dark toxicity |  |  | Significant cell death
CN(C)c1ccc2c(-c3ccc(C(=S)N4CCCCC4)s3)c3cc4c5c(c3[se+]c2c1)CCCN5CCC4.[Cl-] [5-Se—Cl] | 12814 (±1256) | 85.03 (±2.90) % |  |  | 0.009 ± 0.002 | 3.00 ± 0.02 |  |  | 0.13±0.03 and 0.13 ± 0.02 | 
CCN(CC)C(=S)c1ccc(-c2c3ccc(N(C)C)cc3[s+]c3c4c5c(cc23)CCCN5CCC4)s1.[Cl-] [7-S—Cl] | 63950 (±5511) | 74.88 (±3.62) % |  |  |  | 2.55 ± 0.02 |  |  |  | 
CN(C)c1ccc2c(-c3ccc(C(=O)N4CCCCC4)s3)c3cc4c5c(c3[se+]c2c1)CCCN5CCC4.[Cl-] [6-Se—Cl, 12-(Dimethylamino)-2,3,6,7-tetrahydro-9-(N-piperidyl-2-thienyl-5-carboxamido)-1H,5H-selenoxantheno[2,3,4-ij]quinolizin-14-ium hexafluorophosphate(V)] | 14910 | 88.39 (±1.13) % | 2.74 ± 0.02 |  | 0.011 ± 0.002 |  |  |  | 0.23 ± 0.03 | 
CCN(CC)C(=S)c1ccc(-c2c3ccc(=[N+](C)C)cc-3sc3cc4c(cc23)C(C)(C)CCN4C)s1.F[P-](F)(F)(F)(F)F [3-S—PF6] | 45685 (±2726) | 84.91 (±1.57) % |  |  | 0.07 ± 0.01 | 1.7 |  | inhibit ATPase activity |  | 
CN(C)c1ccc2c(-c3ccc(C(=S)N4CCCCC4)s3)c3cc4c5c(c3[s+]c2c1)CCCN5CCC4.F[P-](F)(F)(F)(F)F [5-S—PF6] | 80192 (±4122) | 76.52 (±4.79) % |  |  | 0.28 ± 0.01 | 1.7 |  | inhibit ATPase activity |  | 
CN1CCC(C)(C)c2cc3c(-c4ccc(C(=O)N5CCCCC5)s4)c4ccc(=[N+](C)C)cc-4sc3cc21.F[P-](F)(F)(F)(F)F [2-S—PF6] | 71978 | 91.79 (±1.16) % |  |  | 0.09 ± 0.01 | 1.2 |  | stimulate ATPase activity |  | 
CN1CCC(C)(C)c2cc3c(-c4ccc(C(=O)N5CCCCC5)s4)c4ccc(=[N+](C)C)cc-4sc3cc21.[Cl-] [2-S—Cl] | 50993 | 92.70 (±0.74) % |  |  | 0.09 ± 0.01 | 2.26 ± 0.04 |  |  |  | Significant cell death
CN1CCC(C)(C)c2cc3c(-c4ccc(C(=S)N5CCCCC5)s4)c4ccc(=[N+](C)C)cc-4sc3cc21.F[P-](F)(F)(F)(F)F [1-S—PF6] | 30229 (±1124) | 84.16 (±3.00) % |  |  | 0.07 ± 0.01 | 1.2 |  | inhibit ATPase activity |  | 
CCN(CC)C(=S)c1ccc(-c2c3ccc(=[N+](C)C)cc-3[se]c3cc4c(cc23)C(C)(C)CCN4C)s1.[Cl-] [3-Se—Cl, N-(6-(5-(diethylcarbamothioyl)thiophen-2-yl)-1,4,4-trimethyl-3,4-dihydro-1H-seleno-chromeno[3,2-g]quinolin-9(2H)-ylidene)-N-methylmethanaminium Chloride] | 5480 (±666) | 88.65 (±1.21) % | 2.41 ± 0.04 |  | 0.008 ± 0.002 |  |  |  | 0.54±0.03 | 
